Data reported in ChEMBL document CHEMBL2440076, “New triarylpyrazoles as broad-spectrum anticancer agents: design, synthesis, and biological evaluation” (Eur J Med Chem, 2013).

Columns and labels:
[1] = tested on: 786-0; test: Growth inhibition of human 786-0 cells assessed as cell growth at 10 uM after 48 hrs by sulforhodamine B assay; type: functional; conditions: 786-0, 48 h, read-out: Activity
[2] = tested on: OVCAR-4; test: Growth inhibition of human OVCAR4 cells assessed as cell growth at 10 uM after 48 hrs by sulforhodamine B assay; type: functional; conditions: OVCAR-4, 48 h, read-out: Activity
[3] = tested on: LOX IMVI; test: Growth inhibition of human LOXIMVI cells after 48 hrs by sulforhodamine B assay; type: functional
[4] = tested on: ACHN; test: Growth inhibition of human ACHN cells assessed as cell growth at 10 uM after 48 hrs by sulforhodamine B assay; type: functional; conditions: read-out: Activity
[5] = Growth inhibition of human HCC2998 cells after 48 hrs by sulforhodamine B assay; type: functional; conditions: HCC 2998, 48 h
[6] = tested on: T47D; test: Growth inhibition of human T47D cells after 48 hrs by sulforhodamine B assay; type: functional
[7] = tested on: SNB-19; test: Growth inhibition of human SNB19 cells assessed as cell growth at 10 uM after 48 hrs by sulforhodamine B assay; type: functional; conditions: SNB-19, 48 h, read-out: Activity
[8] = tested on: MDA-MB-231; test: Growth inhibition of human MDA-MB-231 cells after 48 hrs by sulforhodamine B assay; type: functional; conditions: MDA-MB-231, 48 h
[9] = tested on: HCT-15; test: Growth inhibition of human HCT15 cells after 48 hrs by sulforhodamine B assay; type: functional; conditions: HCT-15, 48 h
[10] = tested on: HOP-62; test: Growth inhibition of human HOP62 cells after 48 hrs by sulforhodamine B assay; type: functional; conditions: HOP-62, 48 h
[11] = tested on: A498; test: Growth inhibition of human A498 cells assessed as cell growth at 10 uM after 48 hrs by sulforhodamine B assay; type: functional; conditions: A498, 48 h, read-out: Activity
[12] = tested on: T47D; test: Growth inhibition of human T47D cells assessed as cell growth at 10 uM after 48 hrs by sulforhodamine B assay; type: functional; conditions: read-out: Activity
[13] = tested on: HL-60(TB); test: Growth inhibition of human HL-60(TB) cells after 48 hrs by sulforhodamine B assay; type: functional; conditions: HL-60, 48 h
[14] = tested on: UACC-62; test: Growth inhibition of human UACC62 cells assessed as cell growth at 10 uM after 48 hrs by sulforhodamine B assay; type: functional; conditions: UACC-62, 48 h, read-out: Activity
[15] = tested on: SF-295; test: Growth inhibition of human SF295 cells after 48 hrs by sulforhodamine B assay; type: functional, cell-based; conditions: SF-295, 48 h
[16] = tested on: COLO 205; test: Growth inhibition of human COLO205 cells after 48 hrs by sulforhodamine B assay; type: functional; conditions: COLO 205, 48 h
[17] = tested on: 786-0; test: Growth inhibition of human 786-0 cells after 48 hrs by sulforhodamine B assay; type: functional; conditions: 786-0, 48 h
[18] = tested on: UO-31; test: Growth inhibition of human UO31 cells assessed as cell growth at 10 uM after 48 hrs by sulforhodamine B assay; type: functional; conditions: UO-31, 48 h, read-out: Activity
[19] = tested on: IGROV-1; test: Growth inhibition of human IGROV1 cells after 48 hrs by sulforhodamine B assay; type: functional; conditions: IGROV-1, 48 h
[20] = tested on: K562; test: Growth inhibition of human K562 cells after 48 hrs by sulforhodamine B assay; type: functional; conditions: K562, 48 h
[21] = tested on: MDA-MB-231; test: Growth inhibition of human MDA-MB-231 cells assessed as cell growth at 10 uM after 48 hrs by sulforhodamine B assay; type: functional; conditions: MDA-MB-231, 48 h, read-out: Activity
[22] = tested on: MDA-MB-435; test: Growth inhibition of human MDA-MB-435 cells after 48 hrs by sulforhodamine B assay; type: functional, cell-based; conditions: MDA-MB-435, 48 h
[23] = Growth inhibition of human Hs 578T cells assessed as cell growth at 10 uM after 48 hrs by sulforhodamine B assay; type: functional; conditions: read-out: Activity
[24] = tested on: K562; test: Growth inhibition of human K562 cells assessed as cell growth at 10 uM after 48 hrs by sulforhodamine B assay; type: functional; conditions: K562, 48 h, read-out: Activity
[25] = tested on: UO-31; test: Growth inhibition of human UO31 cells after 48 hrs by sulforhodamine B assay; type: functional; conditions: UO-31, 48 h
[26] = tested on: MDA-MB-468; test: Growth inhibition of human MDA-MB-468 cells after 48 hrs by sulforhodamine B assay; type: functional, cell-based; conditions: MDA-MB-468, 48 h
[27] = tested on: SK-OV-3; test: Growth inhibition of human SKOV3 cells assessed as cell growth at 10 uM after 48 hrs by sulforhodamine B assay; type: functional; conditions: SK-OV-3, 48 h, read-out: Activity
[28] = tested on: DU-145; test: Growth inhibition of human DU145 cells assessed as cell growth at 10 uM after 48 hrs by sulforhodamine B assay; type: functional; conditions: DU-145, 48 h, read-out: Activity
[29] = tested on: SK-MEL-28; test: Growth inhibition of human SK-MEL-28 cells after 48 hrs by sulforhodamine B assay; type: functional; conditions: SK-MEL-28, 48 h
[30] = tested on: M14; test: Growth inhibition of human M14 cells assessed as cell growth at 10 uM after 48 hrs by sulforhodamine B assay; type: functional; conditions: M14, 48 h, read-out: Activity
[31] = tested on: NCI-H322M; test: Growth inhibition of human NCI-H322M cells assessed as cell growth at 10 uM after 48 hrs by sulforhodamine B assay; type: functional; conditions: read-out: Activity
[32] = tested on: RPMI-8226; test: Growth inhibition of human RPMI8226 cells after 48 hrs by sulforhodamine B assay; type: functional, cell-based; conditions: RPMI-8226, 48 h
[33] = tested on: MDA-MB-435; test: Growth inhibition of human MDA-MB-435 cells assessed as cell growth at 10 uM after 48 hrs by sulforhodamine B assay; type: functional; conditions: MDA-MB-435, 48 h, read-out: Activity
[34] = tested on: OVCAR-8; test: Growth inhibition of human OVCAR8 cells assessed as cell growth at 10 uM after 48 hrs by sulforhodamine B assay; type: functional; conditions: OVCAR-8, 48 h, read-out: Activity
[35] = read-out: LC50 (the source's name)

## COc1cc(-c2nn(-c3cccc(NC(=O)c4ccc(Cl)c(C(F)(F)F)c4)c3)cc2-c2ccncc2)ccc1Cl
[1]
  growth at 10 µM: 59.5%
[2]
  growth at 10 µM: 66%
[3]
  GI50: 1.92 µM
  LC50: > 32.5 µM
  TGI: > 32.5 µM
[4]
  growth at 10 µM: 39.1%
[5]
  GI50: 7.86 µM
  TGI: > 32.5 µM
[5]; [35]
  CC50: > 32.5 µM
[6]
  GI50: 2.05 µM
  TGI: > 32.5 µM
[6]; [35]
  CC50: > 32.5 µM
[7]
  growth at 10 µM: 66%
[8]
  GI50: 1.2 µM
  LC50: > 32.5 µM
  TGI: > 32.5 µM
[9]
  GI50: 3.25 µM
  LC50: > 32.5 µM
  TGI: > 32.5 µM
[10]
  GI50: 13.1 µM
  TGI: > 32.5 µM
[10]; [35]
  CC50: > 32.5 µM
[11]
  growth at 10 µM: 11.8%
[12]
  growth at 10 µM: 26.2%
[13]
  GI50: 5.48 µM
  TGI: > 32.5 µM
[13]; [35]
  CC50: > 32.5 µM
[14]
  growth at 10 µM: 32.8%
[15]
  GI50: 1.38 µM
  IC50: 1.38 µM
  TGI: 17.3 µM
[15]; [35]
  CC50: > 32.5 µM
[16]
  GI50: 6.14 µM
  LC50 (concentration killing 50% of cells): > 32.5 µM
  TGI: 23.3 µM
[17]
  GI50: 11 µM
  TGI: > 32.5 µM
[17]; [35]
  CC50: > 32.5 µM
[18]
  growth at 10 µM: 37.1%
[19]
  GI50: 2.15 µM
  LC50 (concentration killing 50% of cells): > 32.5 µM
  TGI: > 32.5 µM
[20]
  GI50: 1.61 µM
  TGI: > 32.5 µM
[20]; [35]
  CC50: > 32.5 µM
[21]
  growth at 10 µM: 25.8%
[22]
  GI50: 0.664 µM
  IC50: 0.66 µM
  TGI: 1.74 µM
[22]; [35]
  CC50: 24.7 µM
[23]
  growth at 10 µM: 34.7%
[24]
  growth at 10 µM: 8.65%
[25]
  GI50: 0.267 µM
  TGI: > 32.5 µM
[25]; [35]
  CC50: > 32.5 µM
[26]
  GI50: 3.69 µM
  IC50: 3.69 µM
  TGI: > 32.5 µM
[26]; [35]
  CC50: > 32.5 µM
[27]
  growth at 10 µM: 64.3%
[28]
  growth at 10 µM: 65.4%
[29]
  GI50: 3.08 µM
  LC50: > 32.5 µM
  TGI: > 32.5 µM
[30]
  growth at 10 µM: 26.2%
[31]
  growth at 10 µM: 84.9%
[32]
  GI50: 1.62 µM
  IC50: 1.62 µM
  TGI: > 32.5 µM
[32]; [35]
  CC50: > 32.5 µM
[33]
  growth at 10 µM: -26.8%
[34]
  growth at 10 µM: 38.9%
